# Source: patent US20250136601A1 (priority 2022, published 2025)
# Values joined by “and” are separate entries in the source; they are usually repeats but may differ in a detail not shown here. Identical values can stand only once. Like-named read-outs stand apart in the source and are kept apart here.
# Columns and labels:
# 5-HT2A receptor [1] = target: T1, 5-HT2A receptor (Homo sapiens (Human), UniProt P28223); test: cell-based; assay type: cell-based; conditions: for Emax: HEK-293T, read-out: β-arrestin2 signaling agonistic activity (percentage in parentheses); for pathway selectivity: β-arrestin2 recruitment versus G protein signaling: without activating the G protein signaling pathway; for Gq signaling agonistic activity (percentage in parentheses): value in parentheses
# Procedure: On the second day, the confluent cells from a 6 cm culture dish were digested and reseeded into a 96-well plate at a volume of 100 μL of culture medium per well. On the third day, the drugs were added for testing. The 96-well plate was taken out from the cell incubator to decant the culture medium. 40 μL of the substrate coelenterazine 400a (final concentration 5 μM) was added to each well, and then 20 μL of different drugs were added sequentially from left to right, ensuring that the final concentration of the drug decreased gradually from bottom to top, with two replicates per treatment. Finally, the prepared samples were loaded on a plate reader for signal quantification. The readout values reflected the recruitment of β-arrestin2 to the membrane or the dissociation of G protein trimer. The former indicated the degree of activation of the downstream β-arrestin2 signaling pathway mediated by the 5-HT2A receptor, and the latter indicated the degree of activation of the downstream G protein signaling pathway mediated by the 5-HT2A receptor.
# 5-HT2A receptor [2] = target: T1, 5-HT2A receptor; test: radioligand competitive binding assay, [3H]-LSD, 293T membranes
# in vivo = conditions: male, C57, mouse, ip
# Procedure: (§1) The concentration of the compound in mouse plasma was determined using LC-MS/MS, and the relevant pharmacokinetic parameters were calculated to investigate the pharmacokinetic characteristics of the compound in mice.
# (§2) Experimental design: 60 male C57 mice (purchased from Suzhou JOINN Laboratory Animal Co., Ltd.) were randomly divided into groups based on weight, with 3 mice per group. The mice were fasted with water ad libitum for 12 to 14 hours one day before test-article administration and fed 4 hours after the administration. The route of administration was intraperitoneal (IP), with a dosing concentration of 1 mg/mL, and a solvent formulation of 10% DMSO+90% saline.
# (§3) Sample collection: 0.1 mL of blood was collected from the orbit under isoflurane anesthesia before and after test-article administration, transferred to EDTA K2 tubes, and placed on an ice bath. The samples were centrifuged at 5000 rpm for 10 minutes at 4° C., and the plasma was collected. […] Prior to analysis, all plasma samples were stored at −80° C.
# (§4) Data processing: Drug concentrations in plasma and brain tissues were measured using LC-MS (API4000QTRAP triple quadrupole tandem mass spectrometer, equipped with an electrospray ionization source (ESI)). The data collection and control system software utilized was Analyst 1.5.1 (Applied Biosystems). The sample peak integration in the spectrum was conducted automatically; the ratio of the sample peak area to the internal standard peak area was used as an indicator to perform regression with the concentration of the sample. Regression method: Linear regression with a weighting factor of 1/X^2. Pharmacokinetic parameters were analyzed using a non-compartmental model in WinNonlin Professional v6.3 (Pharsight, USA). Cmax is the measured maximum plasma concentration, the area under the plasma concentration-time curve (AUC(0→0)) was calculated by the trapezoidal method, and Tmax is the time to reach peak plasma concentration after administration. Experimental data are presented as “Mean±Standard Deviation” (Mean±SD, n≥3) or “Mean” (n=2).
# [3] = system: corticosterone-exposed mice; test: tail suspension test after 21 days of corticosterone exposure; assay type: in vivo, Male C57BL/6 mice
# Procedure: Antidepressant efficacy test method: Male C57BL/6 mice (8 weeks old, purchased from Shanghai Lingchang Biotech Co., Ltd.) were administered a solution of corticosterone in their drinking water at a concentration of 25 μg/mL using drinking water bottles for 21 days. Mice were maintained on a 12-hour light cycle. Corticosterone-containing drinking water was refreshed every other day for the first two weeks, and gradually replaced with corticosterone-free drinking water every two days for the last week. […] TST procedure: mice in the control group and the administration group were suspended by their tails with tape for 6 minutes, and their behavior was recorded by a video camera. The immobility time during the last 4 minutes was manually timed and assessed by an observer who was unaware of the treatment conditions.
# [4] = system: head-twitch response in mice; assay type: in vivo, C57BL/6J mice; conditions: intraperitoneal, at all doses tested, first 30 minutes
# Description: Method: The head-twitch response in mice was detected via oscillatory signals to characterize hallucinogenic effects. Mice (strain C57BL/6J, purchased from Shanghai Lingchang Biotech Co., Ltd.) were anesthetized with 2% isoflurane. A small portion of the scalp was removed from the center of the dorsal cranium. A custom-made small neodymium magnet (4 mm×4 mm×2 mm) was attached to the center of the dorsal cranium using dental resin. The magnet N-S poles were kept parallel to the dorsoventral aspect of the implant. The mice were allowed to recover for 1 week before testing. To record precise head movements, the mice were placed in a glass beaker with a diameter of 12 cm, surrounded by 150 turns of #30 enameled copper wire. The output signal from the coil was recorded using a PowerLab/4SP instrument installed with LabChart V8.1.16 software. Coil voltage was amplified, low-pass filtered at 10 kHz to remove radio frequency interference, and sampled at 40 kHz. For the detection of head-twitch response in mice, LabChart data were processed with a digital band-pass filter at 40 to 200 Hz. The head-twitch response in mice was identified by searching for sinusoidal wavelets that met the following criteria: 1) containing more than two bipolar peaks; 2) amplitude exceeding background noise level; 3) duration less than 120 milliseconds. 1 hour prior to the test, the mice were transferred to the test room for acclimatization. Subsequently, the mice were placed in the beaker for 30 minutes, and baseline head-twitch response values were recorded. Immediately after baseline recording, the mice were injected intraperitoneally with the test compound, and head-twitch response values were recorded for 1 to 2 hours post-dose, depending on the compound used. Statistical values were taken from the first 30 minutes.
# [5] = for AUMC0-inf / AUMC0-t / Kel: mice
# Procedure: as §1, §2, §3, §4
# dopamine D2 receptor = dopamine D2 receptor (Homo sapiens (Human), UniProt P14416); test: radioligand competitive binding assay, [3H]-Methylspiperone, 293T membranes; conditions: affinity for the dopamine D2 receptor
# Procedure: Method: The affinity of the compounds of the present disclosure for the dopamine D2 receptor was determined using a radioligand competitive binding assay as follows. In the first step, a cell membrane component containing dopamine D2 receptor was prepared. […] 48 hours post-transfection, the 10 cm culture dish was taken out from the cell incubator and the cultured cells had expressed the dopamine D2 receptor. The culture medium was aspirated using a vacuum pump, and 3 mL of lysis buffer was added to each culture dish. The cells were then placed in a cold room at 4° C. for 10 minutes. After the cells were detached, they were transferred to a 15 mL centrifuge tube and centrifuged at 1500 rpm for 5 minutes at 4° C., and the supernatant was discarded. The cell pellet was transferred to a tissue homogenizer, and 3 mL of lysis buffer was added. Sufficient grinding was applied to break the cells. The cell suspension was then equally aliquoted into several Eppendorf tubes and centrifuged at 12000 rpm for 5 minutes at 4° C., and the supernatant was discarded. The resulting precipitate was the cell membrane component containing the dopamine D2 receptor. […] The machine readout value reflected the amount of [3H]-Methylspiperone bound on the membrane, and after further data processing, the affinity Ki values of different compounds for the dopamine D2 receptor were obtained.
# [6] = affinity for the 5-HT2A receptor, [3H]-LSD
# [7] = first value of cell, NA = no agonistic activity, read-out: Gq signaling agonistic activity (potency)
# [8] = first value of cell, NA = no agonistic activity, read-out: β-arrestin2 signaling agonistic activity (potency)
# T1 sequence (P28223 whole entry): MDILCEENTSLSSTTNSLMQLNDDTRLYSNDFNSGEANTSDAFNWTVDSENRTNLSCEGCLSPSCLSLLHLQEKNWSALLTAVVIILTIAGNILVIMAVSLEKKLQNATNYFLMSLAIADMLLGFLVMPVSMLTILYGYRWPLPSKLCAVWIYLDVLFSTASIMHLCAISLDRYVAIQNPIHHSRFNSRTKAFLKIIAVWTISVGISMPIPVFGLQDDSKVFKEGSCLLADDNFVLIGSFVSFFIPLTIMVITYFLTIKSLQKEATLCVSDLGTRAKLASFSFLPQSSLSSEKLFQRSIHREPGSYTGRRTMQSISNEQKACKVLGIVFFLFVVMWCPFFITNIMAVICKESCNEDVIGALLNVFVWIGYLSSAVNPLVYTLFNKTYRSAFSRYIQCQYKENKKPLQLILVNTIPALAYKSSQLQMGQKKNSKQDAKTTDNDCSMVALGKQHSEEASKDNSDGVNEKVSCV
# Chain of dopamine D2 receptor (P14416 whole entry, species assumed): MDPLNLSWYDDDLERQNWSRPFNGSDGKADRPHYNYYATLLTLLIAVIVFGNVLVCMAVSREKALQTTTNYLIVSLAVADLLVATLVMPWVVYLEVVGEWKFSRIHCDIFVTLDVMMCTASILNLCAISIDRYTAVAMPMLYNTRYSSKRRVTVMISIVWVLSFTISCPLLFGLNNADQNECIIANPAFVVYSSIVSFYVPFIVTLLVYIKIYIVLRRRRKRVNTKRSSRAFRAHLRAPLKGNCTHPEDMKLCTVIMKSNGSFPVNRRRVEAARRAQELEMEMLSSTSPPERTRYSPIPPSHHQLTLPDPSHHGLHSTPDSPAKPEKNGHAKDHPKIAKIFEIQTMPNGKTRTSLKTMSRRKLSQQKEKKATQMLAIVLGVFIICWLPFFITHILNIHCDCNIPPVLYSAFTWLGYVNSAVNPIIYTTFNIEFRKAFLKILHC
compound,measurement,setting,value
COc1ccc(CCN2CC[C@H]3[C@@H](C2)c2cccc4c2N3CCN4C)cc1 [Compound I-5],EC50,5-HT2A receptor [1],684 nM
same,Emax,5-HT2A receptor [1],3.2%
"COc1ccccc1CCN1CC[C@@H]2[C@H](C1)c1cccc3c1N2CCCN3C (single isomer, unassigned) [Compound I-13]",EC50,5-HT2A receptor [1],181 nM
same,Emax,5-HT2A receptor [1],51.4%
same,pathway selectivity: β-arrestin2 recruitment versus G protein signaling,5-HT2A receptor [1],selectively activate the recruitment of β-arrestin2
same,Ki,5-HT2A receptor [2],< 100 nM
same,Ki,5-HT2A receptor [2]; [6],34 nM
CN1CCN2c3c(cccc31)[C@@H]1CN(Cc3ccccc3O)CC[C@@H]12 [Compound I-2],Emax,5-HT2A receptor [1],68.4%
same,EC50,5-HT2A receptor [1]; [7],309 nM
same,EC50,5-HT2A receptor [1]; [8],229 nM
same,Gq signaling agonistic activity (percentage in parentheses),5-HT2A receptor [1],65.3%
"COc1ccccc1CCCN1CC[C@@H]2[C@H](C1)c1cccc3c1N2CCCS3 [Compound I-27, (8aR,12aS)-11-(3-(2-methoxyphenyl)propyl)-6,7,8a,9,10,11,12,12a-octahydro-5H-pyrido[4,3-b][1,4]thiazepino[2,3,4-hi]indole]",EC50,5-HT2A receptor [1],878 nM
same,Emax,5-HT2A receptor [1],35.7%
same,pathway selectivity: β-arrestin2 recruitment versus G protein signaling,5-HT2A receptor [1],selectively activate the recruitment of β-arrestin2
same,Ki,5-HT2A receptor [2],< 100 nM
same,Ki,5-HT2A receptor [2]; [6],8 nM
"CN1CCN2c3c(cccc31)[C@@H]1CN(CCCc3ccccc3O)CC[C@@H]12 [Compound I-11, 2-(3-((6bR,10aS)-3-methyl-2,3,6b,9,10,10a-hexahydro-1H-pyrido[3′,4′:4,5]pyrrolo[1,2,3-de]quinoxalin-8(7H)-yl)propyl)phenol]",Emax,5-HT2A receptor [1],36.8%
same,Gq signaling agonistic activity (percentage in parentheses),5-HT2A receptor [1],9.7%
same,Ki,5-HT2A receptor [2],< 100 nM
same,Ki,5-HT2A receptor [2]; [6],89 nM
"COc1ccccc1CCCN1CC[C@@H]2[C@H](C1)c1cccc3c1N2CCO3 (single isomer, unassigned) [Compound I-23]",AUC0-t,in vivo; 5 mg/kg,537 ng·h/mL
same,Cmax,in vivo; 5 mg/kg,272 ng/mL and 1420 ng/g
same,Tmax,in vivo; 5 mg/kg,0.5 h
same,MRT,in vivo; 5 mg/kg,1.47 h
same,half-life,"in vivo; 5 mg/kg, T1/2, brain, 5 mg/kg IP, mice",1.1 h
same,half-life,"in vivo; 5 mg/kg, T1/2, plasma, 5 mg/kg IP, mice",1.02 h
same,antidepressant effect in the mouse tail suspension test,"[3]; 10 mg/kg single-injection group, after 7 days",remained significant
same,antidepressant effect in the mouse tail suspension test,"[3]; 10 mg/kg single-injection group, after 14 days",remained significant
same,antidepressant effect in the mouse tail suspension test,[3]; one day after a single administration,significant antidepressant effect
same,hallucinogenic effects (head-twitch response),[4],did not induce hallucinogenic effects
same,AUMC0-inf,"[5]; brain, 5 mg/kg IP",1698 h · h · ng · g^−1
same,AUMC0-t,"[5]; brain, 5 mg/kg IP",1645 h · h · ng · g^−1
same,Kel,"[5]; brain, 5 mg/kg IP",0.630 h⁻¹
same,MRT,"[5]; male, C57, mouse, in vivo, ip, 5 mg/kg",0.932 h
same,AUC0-t,"[5]; mouse, in vivo, ip, 5 mg/kg",1816 ng·h/g
same,AUMC0-inf,"[5]; plasma, 5 mg/kg IP",794 h · h · ng · mL^−1
same,AUMC0-t,"[5]; plasma, 5 mg/kg IP",769 h · h · ng · mL^−1
same,Kel,"[5]; plasma, 5 mg/kg IP",0.678 h⁻¹
"COc1ccccc1CCCN1CC[C@@H]2[C@H](C1)c1cccc3c1N2CCCN3C (single isomer, unassigned) [Compound I-15]",EC50,5-HT2A receptor [1],97.2 nM
same,Emax,5-HT2A receptor [1],24.3%
same,Ki,5-HT2A receptor [2],< 100 nM
COc1ccccc1CCN1CC[C@H]2[C@@H](C1)c1cccc3c1N2CCN3C [Compound I-3],Emax,5-HT2A receptor [1],39%
same,Gq signaling agonistic activity (percentage in parentheses),5-HT2A receptor [1],20.2%
same,Ki,dopamine D2 receptor,1550 nM
same,Ki,5-HT2A receptor [2],< 100 nM
same,hallucinogenic effects (head-twitch response),[4],did not induce hallucinogenic effects
"COc1ccccc1CCN1CC[C@H]2[C@@H](C1)c1cccc3c1N2CCCN3C (single isomer, unassigned) [Compound I-12]",Ki,5-HT2A receptor [2],< 100 nM
same,Ki,5-HT2A receptor [2]; [6],190 nM
"COc1ccccc1CCCN1CC[C@H]2[C@@H](C1)c1cccc3c1N2CCCN3C (single isomer, unassigned) [Compound I-14]",Ki,5-HT2A receptor [2],< 100 nM
COc1ccccc1CN1CC[C@H]2[C@@H](C1)c1cccc3c1N2CCN3C [Compound I-1],Emax,5-HT2A receptor [1],60.2%
same,EC50,5-HT2A receptor [1]; [7],120 nM
same,EC50,5-HT2A receptor [1]; [8],174 nM
same,Gq signaling agonistic activity (percentage in parentheses),5-HT2A receptor [1],67.0%
"COc1ccc(OC)c(CCN2CC[C@H]3[C@@H](C2)c2cccc4c2N3CCN4C)c1 [Compound I-8, (6bR,10aS)-8-(2,5-dimethoxy)-3-methyl-2,3,6b,7,8,9,10,10a-octahydro-1H-pyrido[3′,4′:4,5]pyrrolo[1,2,3-de]quinoxaline]",Ki,5-HT2A receptor [2]; [6],3060 nM
"COc1ccccc1CCCN1CC[C@H]2[C@@H](C1)c1cccc3c1N2CCCS3 (single isomer, unassigned) [Compound I-26]",Ki,5-HT2A receptor [2],< 100 nM
same,Ki,5-HT2A receptor [2]; [6],93 nM
"COc1ccccc1CCCN1CC[C@@H]2[C@H](C1)c1cccc3c1N2CCC3 (single isomer, unassigned) [Compound I-19]",EC50,5-HT2A receptor [1],562 nM
same,Emax,5-HT2A receptor [1],59.4%
same,pathway selectivity: β-arrestin2 recruitment versus G protein signaling,5-HT2A receptor [1],selectively activate the recruitment of β-arrestin2
same,Ki,5-HT2A receptor [2],< 100 nM
same,Ki,5-HT2A receptor [2]; [6],18 nM
COc1ccccc1CCCN1CC[C@H]2[C@@H](C1)c1cccc3c1N2CCN3C [Compound I-10],EC50,5-HT2A receptor [1],204 nM
same,Emax,5-HT2A receptor [1],12.7%
same,Ki,dopamine D2 receptor,1860 nM
same,AUC0-inf,in vivo; 10 mg/kg,582 ng·h/mL
same,AUC0-t,in vivo; 10 mg/kg,576 ng·h/mL
same,Cmax,in vivo; 10 mg/kg,225 ng/mL and 566 ng/g
same,MRT,"in vivo; 10 mg/kg, brain, 10 mg/kg IP, mice",1.53 h
same,MRT,"in vivo; 10 mg/kg, plasma, 10 mg/kg IP, mice",2.11 h
same,half-life,"in vivo; 10 mg/kg, T1/2, brain, 10 mg/kg IP, mice",0.801 h
same,half-life,"in vivo; 10 mg/kg, T1/2, plasma, 10 mg/kg IP, mice",1.06 h
same,Tmax,"in vivo; 10 mg/kg, tmax, brain, 10 mg/kg IP, mice",0.5 h
same,Tmax,"in vivo; 10 mg/kg, tmax, plasma, 10 mg/kg IP, mice",0.083 h
same,Ki,5-HT2A receptor [2],< 100 nM
same,hallucinogenic effects (head-twitch response),[4],did not induce hallucinogenic effects
same,AUMC0-inf,"[5]; brain, 10 mg/kg IP",2054 h · h · ng · g^−1
same,AUMC0-t,"[5]; brain, 10 mg/kg IP",1979 h · h · ng · g^−1
same,Kel,"[5]; brain, 10 mg/kg IP",0.865 h⁻¹
same,AUC0-inf,"[5]; mouse, in vivo, ip, 10 mg/kg",1346 ng·h/g
same,AUC0-t,"[5]; mouse, in vivo, ip, 10 mg/kg",1335 ng·h/g
same,AUMC0-inf,"[5]; plasma, 10 mg/kg IP",1230 h · h · ng · mL^−1
same,AUMC0-t,"[5]; plasma, 10 mg/kg IP",1169 h · h · ng · mL^−1
same,Kel,"[5]; plasma, 10 mg/kg IP",0.654 h⁻¹
"CN1CCN2c3c(cccc31)[C@@H]1CN(CCc3ccccc3O)CC[C@@H]12 [Compound I-9, 2-(2-((6bR,10aS)-3-methyl-2,3,6b,9,10,10a-hexahydro-1H-pyrido[3′,4′:4,5]pyrrolo[1,2,3-de]quinoxalin-8(7H)-yl)ethyl)phenol]",EC50,5-HT2A receptor [1],75.9 nM
same,Emax,5-HT2A receptor [1],14.4%
same,Ki,5-HT2A receptor [2],< 100 nM
same,Ki,5-HT2A receptor [2]; [6],31 nM
"COc1ccccc1CCCN1CC[C@H]2[C@@H](C1)c1cccc3c1N2CCC3 (single isomer, unassigned) [Compound I-18, 10-(3-(2-methoxyphenyl)propyl)-5,6,7a,8,9,10,11,11a-octahydro-4H-pyrido[3′,4′:4,5]pyrrolo[3,2,1-i]quinoline]",Ki,5-HT2A receptor [2],< 100 nM
COc1cccc(CCN2CC[C@H]3[C@@H](C2)c2cccc4c2N3CCN4C)c1 [Compound I-4],Emax,5-HT2A receptor [1],44.2%
same,Gq signaling agonistic activity (percentage in parentheses),5-HT2A receptor [1],13.7%
same,Ki,5-HT2A receptor [2],< 100 nM
